The experiment concerns MV-4-11 cells. Put plainly: Gene expression microarray analysis (Affymetrix PrimeView) and GSEA. Format: cell-based, human. Further details: RFU PODN (11730768_x_at) / Fold change /veh PODN (11730768_x_at) / RFU LINC00158 (11744669_a_at) / Fold change /veh LINC00158 (11744669_a_at) / RFU DUSP10 (11751237_a_at) / Fold change /veh DUSP10 (11751237_a_at) / RFU ID3 (11757404_x_at) / Fold change /veh ID3 (11757404_x_at) / RFU PLEKHG5 (11737974_s_at) / Fold change /veh PLEKHG5 (11737974_s_at) / RFU LRRC4B (11730491_at) / Fold change /veh LRRC4B (11730491_at) / RFU GIMAP4 (11747438_a_at) / Fold change /veh GIMAP4 (11747438_a_at) / RFU KRT8 (11758183_x_at) / Fold change /veh KRT8 (11758183_x_at) / RFU CNN1 (11734310_a_at) / Fold change /veh CNN1 (11734310_a_at) / RFU VPS37D (11726825_at) / Fold change /veh VPS37D (11726825_at) / RFU C10orf10 (11716522_x_at) / Fold change /veh C10orf10 (11716522_x_at) / RFU KIR2DL2 /// KIR2DL4 /// KIR2DL5A /// KIR2DL5B /// KIR2DS1 /// KIR2DS2 /// KIR2DS3 /// KIR2DS4 /// KIR3DL3 /// KIR3DL3 /// KIR3DS1 (11738374_at) / Fold change /veh KIR2DL2 /// KIR2DL4 /// KIR2DL5A /// KIR2DL5B /// KIR2DS1 /// KIR2DS2 /// KIR2DS3 /// KIR2DS4 /// KIR3DL3 /// KIR3DL3 /// KIR3DS1 (11738374_at) / RFU C1QL1 (11718748_at) / Fold change /veh C1QL1 (11718748_at) / RFU TMPRSS4 (11747572_a_at) / Fold change /veh TMPRSS4 (11747572_a_at) / RFU HAMP (11756126_x_at) / Fold change /veh HAMP (11756126_x_at) / RFU RNFT2 (11725882_a_at) / Fold change /veh RNFT2 (11725882_a_at) / RFU NR4A2 (11747474_a_at) / Fold change /veh NR4A2 (11747474_a_at) / RFU ABCC12 (11746883_a_at) / Fold change /veh ABCC12 (11746883_a_at) / RFU TMEM136 (11760407_x_at) / Fold change /veh TMEM136 (11760407_x_at) / RFU CLDN22 /// WWC2 (11732394_at) / Fold change /veh CLDN22 /// WWC2 (11732394_at) / RFU HLA-DPB1 (11760878_x_at) / Fold change /veh HLA-DPB1 (11760878_x_at) / RFU SPINT1 (11716480_a_at) / Fold change /veh SPINT1 (11716480_a_at) / RFU GAP43 (11754022_s_at) / Fold change /veh GAP43 (11754022_s_at) / RFU A4GNT (11735810_at) / Fold change /veh A4GNT (11735810_at) / RFU PRB3 (11715151_x_at) / Fold change /veh PRB3 (11715151_x_at) / RFU TUBB4B (11761932_at) / Fold change /veh TUBB4B (11761932_at) / RFU CAPN14 (11732068_a_at) / Fold change /veh CAPN14 (11732068_a_at) / RFU TMCC2 (11721928_a_at) / Fold change /veh TMCC2 (11721928_a_at) / RFU IRGQ (11745062_a_at) / Fold change /veh IRGQ (11745062_a_at) / RFU FAM174B (11720279_a_at) / Fold change /veh FAM174B (11720279_a_at) / RFU TMPRSS4 (11748680_a_at) / Fold change /veh TMPRSS4 (11748680_a_at) / RFU FAM212B (11763350_a_at) / Fold change /veh FAM212B (11763350_a_at) / RFU PLEKHG5 (11743358_a_at) / Fold change /veh PLEKHG5 (11743358_a_at) / RFU ZSCAN30 (11745921_a_at) / Fold change /veh ZSCAN30 (11745921_a_at) / RFU CMKLR1 (11741424_a_at) / Fold change /veh CMKLR1 (11741424_a_at) / RFU LOC101060620 /// MAPK8IP1 (11723275_at) / Fold change /veh LOC101060620 /// MAPK8IP1 (11723275_at) / RFU SPTSSB (11747773_x_at) / Fold change /veh SPTSSB (11747773_x_at) / RFU PRSS12 (11739890_at) / Fold change /veh PRSS12 (11739890_at) / RFU BIN1 (11741810_x_at) / Fold change /veh BIN1 (11741810_x_at) / RFU WNT11 (11732464_a_at) / Fold change /veh WNT11 (11732464_a_at) / RFU C10orf10 (11716521_a_at) / Fold change /veh C10orf10 (11716521_a_at) / RFU C5orf56 (11738089_at) / Fold change /veh C5orf56 (11738089_at) / RFU CYB561 (11721691_x_at) / Fold change /veh CYB561 (11721691_x_at) / RFU ANKRD19P (11752326_a_at) / Fold change /veh ANKRD19P (11752326_a_at) / RFU OR2T12 /// OR2T33 /// OR2T8 (11738714_s_at) / Fold change /veh OR2T12 /// OR2T33 /// OR2T8 (11738714_s_at) / RFU VCAN (11748164_a_at) / Fold change /veh VCAN (11748164_a_at) / RFU JSRP1 (11732532_at) / Fold change /veh JSRP1 (11732532_at) / RFU KRTAP10-11 (11738290_x_at) / Fold change /veh KRTAP10-11 (11738290_x_at) / RFU MYO3A (11730013_a_at) / Fold change /veh MYO3A (11730013_a_at) / RFU EBF3 (11725865_a_at) / Fold change /veh EBF3 (11725865_a_at) / RFU CAMK2N1 (11719241_x_at) / Fold change /veh CAMK2N1 (11719241_x_at) / RFU C5orf56 (11738088_a_at) / Fold change /veh C5orf56 (11738088_a_at) / RFU OLFML3 (11715873_a_at) / Fold change /veh OLFML3 (11715873_a_at) / RFU LOC100653217 /// NTM (11731650_a_at) / Fold change /veh LOC100653217 /// NTM (11731650_a_at) / RFU MAPK11 (11762145_a_at) / Fold change /veh MAPK11 (11762145_a_at) / RFU FIZ1 (11724087_x_at) / Fold change /veh FIZ1 (11724087_x_at) / RFU OASL (11726364_x_at) / Fold change /veh OASL (11726364_x_at) / RFU SOX15 (11748057_x_at) / Fold change /veh SOX15 (11748057_x_at) / RFU CD79A (11719716_a_at) / Fold change /veh CD79A (11719716_a_at) / RFU HIST1H1D (11736915_at) / Fold change /veh HIST1H1D (11736915_at) / RFU CASKIN2 (11723855_a_at) / Fold change /veh CASKIN2 (11723855_a_at) / RFU LOC730098 (11760151_x_at) / Fold change /veh LOC730098 (11760151_x_at) / RFU OR4N2 (11742367_at) / Fold change /veh OR4N2 (11742367_at) / RFU PRRT2 (11749266_a_at) / Fold change /veh PRRT2 (11749266_a_at) / RFU SNX32 (11753110_a_at) / Fold change /veh SNX32 (11753110_a_at) / RFU CDHR5 (11726645_a_at) / Fold change /veh CDHR5 (11726645_a_at) / RFU RCAN1 (11760418_a_at) / Fold change /veh RCAN1 (11760418_a_at) / RFU FAM167A (11723789_a_at) / Fold change /veh FAM167A (11723789_a_at) / RFU FAM26E (11764081_at) / Fold change /veh FAM26E (11764081_at) / RFU ISYNA1 (11749810_s_at) / Fold change /veh ISYNA1 (11749810_s_at) / RFU ACY1 (11761880_at) / Fold change /veh ACY1 (11761880_at) / RFU 11764098_at / Fold change /veh 11764098_at / RFU SAMD14 (11745864_x_at) / Fold change /veh SAMD14 (11745864_x_at) / RFU NPB (11741838_a_at) / Fold change /veh NPB (11741838_a_at) / RFU TMPRSS6 (11731388_a_at) / Fold change /veh TMPRSS6 (11731388_a_at) / RFU KRTAP10-2 (11738614_at) / Fold change /veh KRTAP10-2 (11738614_at) / RFU ARHGAP8 /// PRR5-ARHGAP8 (11727945_x_at) / Fold change /veh ARHGAP8 /// PRR5-ARHGAP8 (11727945_x_at) / RFU KRTAP5-7 /// NADSYN1 (11734609_at) / Fold change /veh KRTAP5-7 /// NADSYN1 (11734609_at) / RFU RASL12 (11751679_a_at) / Fold change /veh RASL12 (11751679_a_at) / RFU CDKN2B (11736163_a_at) / Fold change /veh CDKN2B (11736163_a_at) / RFU PRF1 (11729649_at) / Fold change /veh PRF1 (11729649_at) / RFU, ZNF638 /// ZNF638-IT1 / Fold change vs veh, ZNF638 /// ZNF638-IT1 / RFU, PANK3 / Fold change vs veh, PANK3 / RFU, SH3YL1 / Fold change vs veh, SH3YL1 / RFU, ZEB2 / Fold change vs veh, ZEB2 / RFU, NRIP1 / Fold change vs veh, NRIP1 / RFU, PTTG1IP / Fold change vs veh, PTTG1IP / RFU, CAPN2 / Fold change vs veh, CAPN2 / RFU, MED14 / Fold change vs veh, MED14 / RFU, SNORA58 / Fold change vs veh, SNORA58 / RFU, C1orf63 / Fold change vs veh, C1orf63 / RFU, LRRFIP1 / Fold change vs veh, LRRFIP1 / RFU, NDUFAF7 / Fold change vs veh, NDUFAF7 / RFU, SLC12A2 / Fold change vs veh, SLC12A2 / RFU, IBTK / Fold change vs veh, IBTK / RFU, ESF1 / Fold change vs veh, ESF1 / Fold change vs veh, TMEM50B / RFU, TAOK1 / Fold change vs veh, TAOK1 / RFU, ACBD3 / Fold change vs veh, ACBD3 / RFU, TMA16 / Fold change vs veh, TMA16 / RFU, RWDD3 / Fold change vs veh, RWDD3 / RFU, BCAT1 / Fold change vs veh, BCAT1 / RFU, EDEM3 / Fold change vs veh, EDEM3 / RFU, TMEM33 / Fold change vs veh, TMEM33 / RFU, WDR75 / Fold change vs veh, WDR75 / RFU, AHCTF1 / Fold change vs veh, AHCTF1 / RFU, TFRC / Fold change vs veh, TFRC / RFU, ZDHHC17 / Fold change vs veh, ZDHHC17 / RFU, NOM1 / Fold change vs veh, NOM1 / RFU, ARL8B / Fold change vs veh, ARL8B / RFU, ZBTB11 / Fold change vs veh, ZBTB11 / RFU, TAMM41 / Fold change vs veh, TAMM41 / RFU, KIAA1704 /// LOC100996395 / Fold change vs veh, KIAA1704 /// LOC100996395 / RFU, ING1 / Fold change vs veh, ING1 / RFU, TRMT61B / Fold change vs veh, TRMT61B / RFU, FUBP3 / Fold change vs veh, FUBP3 / RFU, TP53 / Fold change vs veh, TP53 / RFU, TNKS2 / Fold change vs veh, TNKS2 / RFU, ZFP14 / Fold change vs veh, ZFP14 / RFU, ACTR2 / Fold change vs veh, ACTR2 / RFU, PPP3R1 / Fold change vs veh, PPP3R1 / RFU, PIK3R1 / Fold change vs veh, PIK3R1 / RFU, HNRNPA1 / Fold change vs veh, HNRNPA1 / RFU, RNF170 / Fold change vs veh, RNF170 / RFU, ZNF28 / Fold change vs veh, ZNF28 / RFU, RNGTT / Fold change vs veh, RNGTT / RFU, OGT / Fold change vs veh, OGT / RFU, BRD1 / Fold change vs veh, BRD1 / RFU, MARS / Fold change vs veh, MARS / RFU, ZNF655 / Fold change vs veh, ZNF655 / RFU, FAHD1 / Fold change vs veh, FAHD1 / RFU, BDP1 / Fold change vs veh, BDP1 / RFU, LRRCC1 / Fold change vs veh, LRRCC1 / RFU, ARID1A / Fold change vs veh, ARID1A / RFU, ZNF146 / Fold change vs veh, ZNF146 / RFU, ZNF330 / Fold change vs veh, ZNF330 / RFU, GPN3 / Fold change vs veh, GPN3 / RFU, C9orf123 / Fold change vs veh, C9orf123 / RFU, N4BP2L2 / Fold change vs veh, N4BP2L2 / RFU, ARFIP1 / Fold change vs veh, ARFIP1 / RFU, FAM179B / Fold change vs veh, FAM179B / RFU, BCL10 / Fold change vs veh, BCL10 / RFU, UHRF1BP1L / Fold change vs veh, UHRF1BP1L / RFU, BET1 / Fold change vs veh, BET1 / RFU, CNOT2 / Fold change vs veh, CNOT2 / RFU, ZNF268 / Fold change vs veh, ZNF268 / Fold change vs veh, ZNF507 / RFU, DGCR2 / Fold change vs veh, DGCR2 / RFU, WDSUB1 / Fold change vs veh, WDSUB1 / Fold change vs veh, HSP90B1 /// MIR3652 / RFU, ADSS / Fold change vs veh, ADSS / RFU, GK / Fold change vs veh, GK / RFU, ZNF148 / Fold change vs veh, ZNF148 / RFU, TAF9 / Fold change vs veh, TAF9 / RFU, SLC1A5 / Fold change vs veh, SLC1A5 / RFU, SLMO2 / Fold change vs veh, SLMO2 / RFU, ABCC4 / Fold change vs veh, ABCC4 / RFU, LOC101060439 /// RAP1B / Fold change vs veh, LOC101060439 /// RAP1B / RFU, RFX7 / Fold change vs veh, RFX7 / RFU, GTPBP10 / Fold change vs veh, GTPBP10 / RFU, CNEP1R1 / Fold change vs veh, CNEP1R1 / RFU, BIVM-ERCC5 /// ERCC5 / Fold change vs veh, BIVM-ERCC5 /// ERCC5 / RFU, ILF3 / Fold change vs veh, ILF3 / RFU 11762660_at / Fold change /veh 11762660_at / RFU VCAN (11757783_s_at) / Fold change /veh VCAN (11757783_s_at) / RFU DDX43 (11728927_at) / Fold change /veh DDX43 (11728927_at) / RFU KRT8 (11758188_x_at) / Fold change /veh KRT8 (11758188_x_at) / RFU NKD1 (11759106_at) / Fold change /veh NKD1 (11759106_at) / RFU SRD5A1 (11742802_a_at) / Fold change /veh SRD5A1 (11742802_a_at) / RFU TPSAB1 /// TPSB2 (11721975_s_at) / Fold change /veh TPSAB1 /// TPSB2 (11721975_s_at) / RFU GSTM3 (11746129_a_at) / Fold change /veh GSTM3 (11746129_a_at) / RFU IL23R (11737362_x_at) / Fold change /veh IL23R (11737362_x_at) / RFU TMEM51 (11727254_a_at) / Fold change /veh TMEM51 (11727254_a_at) / RFU PIWIL2 (11732686_x_at) / Fold change /veh PIWIL2 (11732686_x_at) / RFU ORM1 (11744905_x_at) / Fold change /veh ORM1 (11744905_x_at) / RFU CCDC152 (11743942_at) / Fold change /veh CCDC152 (11743942_at) / RFU ECM1 (11717891_a_at) / Fold change /veh ECM1 (11717891_a_at) / RFU IL23R (11748794_a_at) / Fold change /veh IL23R (11748794_a_at) / RFU TNFAIP8L3 (11732012_x_at) / Fold change /veh TNFAIP8L3 (11732012_x_at) / RFU MBOAT4 (11741988_at) / Fold change /veh MBOAT4 (11741988_at) / RFU 11764193_at / Fold change /veh 11764193_at / RFU TMEM53 (11763286_at) / Fold change /veh TMEM53 (11763286_at) / RFU MAGEB2 (11727129_at) / Fold change /veh MAGEB2 (11727129_at) / RFU TMEM200A (11744735_a_at) / Fold change /veh TMEM200A (11744735_a_at) / RFU CCDC152 (11751479_a_at) / Fold change /veh CCDC152 (11751479_a_at) / RFU FAM211A (11726209_a_at) / Fold change /veh FAM211A (11726209_a_at) / RFU RGS16 (11746705_a_at) / Fold change /veh RGS16 (11746705_a_at) / RFU VCAN (11755009_s_at) / Fold change /veh VCAN (11755009_s_at) / RFU RHOB (11743442_s_at) / Fold change /veh RHOB (11743442_s_at) / RFU RGS16 (11720943_a_at) / Fold change /veh RGS16 (11720943_a_at) / RFU RGS16 (11720944_at) / Fold change /veh RGS16 (11720944_at) / RFU, VPS4B / Fold change vs veh, VPS4B / RFU, CREB1 / Fold change vs veh, CREB1 / RFU, DNAJC13 / Fold change vs veh, DNAJC13 / RFU, GNAQ / Fold change vs veh, GNAQ / RFU, CDK5R1 / Fold change vs veh, CDK5R1 / RFU, ZRANB3 / Fold change vs veh, ZRANB3 / RFU, CUL4A / Fold change vs veh, CUL4A / RFU, CCNY / Fold change vs veh, CCNY / RFU, UFL1 / Fold change vs veh, UFL1 / RFU, COG3 / Fold change vs veh, COG3 / RFU, DIAPH2 / Fold change vs veh, DIAPH2 / RFU, SKA2 / Fold change vs veh, SKA2 / RFU, AFF3 / Fold change vs veh, AFF3 / RFU, LMF1 / Fold change vs veh, LMF1 / RFU, IPO11 / Fold change vs veh, IPO11 / RFU, DFFB / Fold change vs veh, DFFB / RFU, FOXP1 / Fold change vs veh, FOXP1 / RFU, CARD8 / Fold change vs veh, CARD8 / RFU, STRN3 / Fold change vs veh, STRN3 / RFU, ADK / Fold change vs veh, ADK / RFU, RASSF2 / Fold change vs veh, RASSF2 / RFU, WIPF1 / Fold change vs veh, WIPF1 / RFU, LARP1B / Fold change vs veh, LARP1B / RFU, RASA1 / Fold change vs veh, RASA1 / RFU, RB1 / Fold change vs veh, RB1 / RFU, PPFIA1 / Fold change vs veh, PPFIA1 / RFU, MAT2A / Fold change vs veh, MAT2A / RFU, CCT5 / Fold change vs veh, CCT5 / RFU, WDR92 / Fold change vs veh, WDR92 / RFU, CUX1 / Fold change vs veh, CUX1 / RFU, TTC7A / Fold change vs veh, TTC7A / RFU, TMEM135 / Fold change vs veh, TMEM135 / RFU, DEPTOR / Fold change vs veh, DEPTOR / RFU, CPM / Fold change vs veh, CPM / RFU, DNAJB6 / Fold change vs veh, DNAJB6 / RFU, CACNA2D3 / Fold change vs veh, CACNA2D3 / RFU, DTX4 / Fold change vs veh, DTX4 / RFU, TFCP2 / Fold change vs veh, TFCP2 / RFU, GMCL1 /// GMCL1P1 / Fold change vs veh, GMCL1 /// GMCL1P1 / RFU, AEBP2 / Fold change vs veh, AEBP2 / RFU, SNHG1 /// SNORD22 /// SNORD25 /// SNORD26 /// SNORD27 /// SNORD28 /// SNORD29 /// SNORD31 / Fold change vs veh, SNHG1 /// SNORD22 /// SNORD25 /// SNORD26 /// SNORD27 /// SNORD28 /// SNORD29 /// SNORD31 / Fold change (Aza/veh), C12orf56 (ProbeSet 11735607_a_at) / Fold change (ACY-1035/veh), C12orf56 (ProbeSet 11735607_a_at) / Fold change (Aza/veh), FGFR1OP (ProbeSet 11751329_s_at) / Fold change (ACY-1035/veh), FGFR1OP (ProbeSet 11751329_s_at) / Fold change (Aza/veh), VPS36 (ProbeSet 11739960_a_at) / Fold change (ACY-1035/veh), VPS36 (ProbeSet 11739960_a_at) / RFU SYPL1 (11715823_x_at) / Fold change /veh SYPL1 (11715823_x_at) / RFU IGFBP7 (11715501_s_at) / Fold change /veh IGFBP7 (11715501_s_at) / RFU REEP3 (11722064_at) / Fold change /veh REEP3 (11722064_at) / RFU IGLL1 (11728026_x_at) / Fold change /veh IGLL1 (11728026_x_at): dose or concentration left out as unconfirmed. The settings on record: ProbeSet 11750457_a_at; LIST B.

This is an account of results in PMC5218480 (PLoS ONE, 2017).

Regarding `Nc1ncn([C@@H]2O[C@H](CO)[C@@H](O)[C@H]2O)c(=O)n1` [azacitidine], the “RFU, GTPBP10” value was determined as 30.84 RFU.
